The record followed here is ChEMBL document CHEMBL5113441, “Exploration of 4-(1H-indol-3-yl)cyclohex-3-en-1-amine analogues as HDAC inhibitors: Design, synthesis, biological evaluation and modelling studies” (Bioorg Med Chem Lett, 2022).

For data set [1], the target named is T1, Histone deacetylase 1/2/3 (Homo sapiens) (UniProt Q13547+O15379+Q92769). Description: Inhibition of HDAC1/HDAC2/HDAC3 in human HCT-116 cells assessed as increase in accumulation of acetylated histone H3 measured after 48 hrs by Western blot analysis. It is filed as cell-based. The settings on record: dose 200-800 nM, DDE = dose-dependent effect.
Data set [2] can be described thus: Selectivity index, ratio of IC50 for human L02 cells to IC50 for human A549 cells. The format is toxicity. The note with it: L02 cells and A549 cells, read-out: Ratio IC50.
The species named for data set [3] is Homo sapiens. The data set is described as follows: Selectivity ratio of IC50 for HDAC6 (unknown origin) to IC50 for HDAC2 (unknown origin).
Data set [4] is described as follows: Cytotoxicity against human L02 cells measured after 72 hrs.
The subject of data set [5] is HCT-116. The data set is described as follows: Induction of apoptosis in human HCT-116 cells assessed as apoptotic cells at 100 nM measured after 48 hrs by Annexin-FITC/propidium iodide staining based flow cytometry relative to control. It is filed as functional. (In general: A flow cytometer gives signals particle by particle.)
The species named for data set [6] is Homo sapiens. The data set is described as follows: Selectivity ratio of IC50 for HDAC6 (unknown origin) to IC50 for HDAC3 (unknown origin).
Data set [7] deals with HCT-116. The data set is described as follows: Inhibition of colony formation in human HCT-116 cells. It is filed as functional, cell-based. The settings on record: dose 50-200 nM, DDE = dose-dependent effect.
Data set [8] addresses Histone deacetylase 1 (Homo sapiens, UniProt Q13547). The data set is described as follows: Inhibition of HDAC1 (unknown origin).
For data set [9], the species on record is Homo sapiens. The data set is described as follows: Selectivity ratio of IC50 for HDAC6 (unknown origin) to IC50 for HDAC1 (unknown origin).
Data set [10] concerns HCT-116. Description: Cell cycle arrest in human HCT-116 cells assessed as increase in accumulation at G2/M phase measured after 48 hrs by propidium iodide staining based flow cytometry. The format is functional. The settings on record: dose 50-200 nM, DDE = dose-dependent effect.
Data set [11] relates to A549. The data set is described as follows: Antiproliferative activity against human A549 cells measured after 72 hrs. The settings on record: A549, 72 h. The format is functional, cell-based.
Data set [12] has as its system SW480. Description: Antiproliferative activity against human SW480 cells measured after 72 hrs. The format is functional, cell-based. The note with it: SW480, 72 h.
The target of data set [13] is T1, Histone deacetylase 1/2/3 (Homo sapiens). Description: Inhibition of HDAC1/HDAC2/HDAC3 in human HCT-116 cells assessed as increase in accumulation of acetylated histone H4 measured after 48 hrs by Western blot analysis. It is filed as cell-based. The note with it: dose 200-800 nM, DDE = dose-dependent effect. (In general: Immunoblotting shows a protein as a band on a membrane.)

The subject of data set [14] is MCF7. Description: Antiproliferative activity against human MCF7 cells measured after 72 hrs. The note with it: MCF7, 72 h. The format is functional, cell-based.
Data set [15] addresses Histone deacetylase 2 (Homo sapiens, UniProt Q92769). Description: Inhibition of HDAC2 (unknown origin).
Data set [16] concerns HCT-116. The data set is described as follows: Induction of apoptosis in human HCT-116 cells assessed as apoptotic cells at 200 nM measured after 48 hrs by Annexin-FITC/propidium iodide staining based flow cytometry relative to control. The format is functional.
The test system of data set [17] is HCT-116. The data set is described as follows: Induction of apoptosis in human HCT-116 cells assessed as appearance of smaller nuclei measured after 48 hrs by Hoechst 33342 staining based assay. It is filed as functional, cell-based. The settings on record: dose 50-200 nM, DDE = dose-dependent effect.
Data set [18] concerns HCT-116. The data set is described as follows: Antiproliferative activity against human HCT-116 cells measured after 72 hrs. It is filed as functional, cell-based. The settings on record: HCT-116, 72 h.
Data set [19] concerns the target T2, Protein deacetylase HDAC6 (Homo sapiens, UniProt Q9UBN7).
T2 sequence (Q9UBN7 whole entry): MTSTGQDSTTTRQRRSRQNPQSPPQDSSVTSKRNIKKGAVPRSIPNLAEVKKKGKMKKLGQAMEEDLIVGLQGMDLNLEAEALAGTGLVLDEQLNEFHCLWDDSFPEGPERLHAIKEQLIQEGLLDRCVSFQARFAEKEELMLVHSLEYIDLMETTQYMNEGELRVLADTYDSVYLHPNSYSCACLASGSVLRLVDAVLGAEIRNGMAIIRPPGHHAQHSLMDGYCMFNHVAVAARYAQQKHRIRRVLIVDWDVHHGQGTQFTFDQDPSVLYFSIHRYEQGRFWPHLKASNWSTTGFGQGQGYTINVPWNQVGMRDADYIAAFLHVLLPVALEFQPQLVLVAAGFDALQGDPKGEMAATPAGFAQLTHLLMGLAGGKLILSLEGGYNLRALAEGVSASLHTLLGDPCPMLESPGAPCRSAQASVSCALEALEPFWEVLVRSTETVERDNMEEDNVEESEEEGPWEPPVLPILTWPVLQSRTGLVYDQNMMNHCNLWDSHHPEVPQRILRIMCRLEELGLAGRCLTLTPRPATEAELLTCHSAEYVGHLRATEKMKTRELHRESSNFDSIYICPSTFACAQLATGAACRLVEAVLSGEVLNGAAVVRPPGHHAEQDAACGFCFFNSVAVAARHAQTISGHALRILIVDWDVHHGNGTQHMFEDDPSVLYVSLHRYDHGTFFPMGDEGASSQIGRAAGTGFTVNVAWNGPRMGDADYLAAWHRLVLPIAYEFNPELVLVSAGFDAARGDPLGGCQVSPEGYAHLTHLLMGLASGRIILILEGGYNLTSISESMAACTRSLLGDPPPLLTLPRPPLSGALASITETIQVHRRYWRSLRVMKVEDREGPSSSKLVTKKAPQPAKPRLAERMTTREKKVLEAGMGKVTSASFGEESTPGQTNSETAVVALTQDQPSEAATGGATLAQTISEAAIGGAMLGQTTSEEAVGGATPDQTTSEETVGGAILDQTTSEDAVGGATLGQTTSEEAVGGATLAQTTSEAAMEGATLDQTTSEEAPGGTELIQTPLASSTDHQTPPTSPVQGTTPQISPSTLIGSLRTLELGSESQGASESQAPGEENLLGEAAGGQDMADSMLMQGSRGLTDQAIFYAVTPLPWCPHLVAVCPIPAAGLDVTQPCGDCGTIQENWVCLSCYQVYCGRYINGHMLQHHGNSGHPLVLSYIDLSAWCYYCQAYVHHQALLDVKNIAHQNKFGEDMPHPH
The data set is described as follows: Inhibition of HDAC6 (unknown origin).

Data set [20] deals with HCT-116. Description: Induction of apoptosis in human HCT-116 cells assessed as chromatin condensation measured after 48 hrs by Hoechst 33342 staining based assay. The format is functional, cell-based. The settings on record: dose 50-200 nM, DDE = dose-dependent effect.
Data set [21] concerns the target Histone deacetylase 3 (Homo sapiens, UniProt O15379). The data set is described as follows: Inhibition of HDAC3 (unknown origin).
The target in data set [22] is T3, Histone deacetylase 8 (Homo sapiens, UniProt Q9BY41).
T3 sequence (Q9BY41 whole entry): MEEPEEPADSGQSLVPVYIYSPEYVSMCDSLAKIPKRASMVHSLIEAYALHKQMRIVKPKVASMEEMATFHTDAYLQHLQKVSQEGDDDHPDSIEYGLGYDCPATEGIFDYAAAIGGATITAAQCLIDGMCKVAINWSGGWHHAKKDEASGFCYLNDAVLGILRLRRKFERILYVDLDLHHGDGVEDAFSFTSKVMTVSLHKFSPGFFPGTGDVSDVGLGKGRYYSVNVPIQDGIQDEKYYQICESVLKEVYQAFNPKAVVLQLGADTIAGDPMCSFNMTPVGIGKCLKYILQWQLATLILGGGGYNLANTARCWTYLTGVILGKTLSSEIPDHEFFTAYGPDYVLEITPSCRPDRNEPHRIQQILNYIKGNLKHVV
The data set is described as follows: Inhibition of HDAC8 (unknown origin).

Data set [23] concerns HCT-116. The data set is described as follows: Induction of apoptosis in human HCT-116 cells measured after 48 hrs by Annexin-FITC/propidium iodide staining based flow cytometry. It is filed as functional, cell-based. The note with it: dose 50-200 nM, DDE = dose-dependent effect.
For data set [24], the system named is HCT-116. The data set is described as follows: Antimigratory activity against human HCT-116 cells at 25 nM measured after 48 hrs by wound healing assay. It is filed as functional, cell-based.

The source made the active and inactive calls. The calls are words filed in the database; no cut-off is given here.

Histone deacetylase 1, sequence (Q13547 whole entry): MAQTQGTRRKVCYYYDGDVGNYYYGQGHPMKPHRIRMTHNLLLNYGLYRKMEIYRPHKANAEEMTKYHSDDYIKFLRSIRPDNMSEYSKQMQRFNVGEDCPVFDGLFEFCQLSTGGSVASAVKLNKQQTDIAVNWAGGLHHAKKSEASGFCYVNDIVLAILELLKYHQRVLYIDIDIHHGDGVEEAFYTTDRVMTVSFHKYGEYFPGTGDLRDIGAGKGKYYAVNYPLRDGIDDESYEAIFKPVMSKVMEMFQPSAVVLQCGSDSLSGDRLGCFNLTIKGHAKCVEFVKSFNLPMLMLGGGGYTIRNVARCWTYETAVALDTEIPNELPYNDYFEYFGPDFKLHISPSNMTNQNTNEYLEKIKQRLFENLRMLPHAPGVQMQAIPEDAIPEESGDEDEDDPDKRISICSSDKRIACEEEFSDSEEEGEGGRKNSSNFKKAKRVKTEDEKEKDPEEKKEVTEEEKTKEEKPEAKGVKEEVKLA
Histone deacetylase 3, sequence (O15379 whole entry): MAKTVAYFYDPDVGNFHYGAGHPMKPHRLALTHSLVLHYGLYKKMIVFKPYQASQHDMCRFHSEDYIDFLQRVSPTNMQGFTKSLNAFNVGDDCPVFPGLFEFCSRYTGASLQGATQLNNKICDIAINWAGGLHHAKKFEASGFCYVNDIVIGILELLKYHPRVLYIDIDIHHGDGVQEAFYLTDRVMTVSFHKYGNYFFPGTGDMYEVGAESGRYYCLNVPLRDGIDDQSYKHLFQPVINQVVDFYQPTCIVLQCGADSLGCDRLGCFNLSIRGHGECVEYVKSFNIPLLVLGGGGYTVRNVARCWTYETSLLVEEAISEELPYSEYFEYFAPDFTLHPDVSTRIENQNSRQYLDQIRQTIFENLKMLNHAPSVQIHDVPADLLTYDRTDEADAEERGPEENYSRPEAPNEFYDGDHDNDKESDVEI
Histone deacetylase 2, sequence (Q92769 whole entry): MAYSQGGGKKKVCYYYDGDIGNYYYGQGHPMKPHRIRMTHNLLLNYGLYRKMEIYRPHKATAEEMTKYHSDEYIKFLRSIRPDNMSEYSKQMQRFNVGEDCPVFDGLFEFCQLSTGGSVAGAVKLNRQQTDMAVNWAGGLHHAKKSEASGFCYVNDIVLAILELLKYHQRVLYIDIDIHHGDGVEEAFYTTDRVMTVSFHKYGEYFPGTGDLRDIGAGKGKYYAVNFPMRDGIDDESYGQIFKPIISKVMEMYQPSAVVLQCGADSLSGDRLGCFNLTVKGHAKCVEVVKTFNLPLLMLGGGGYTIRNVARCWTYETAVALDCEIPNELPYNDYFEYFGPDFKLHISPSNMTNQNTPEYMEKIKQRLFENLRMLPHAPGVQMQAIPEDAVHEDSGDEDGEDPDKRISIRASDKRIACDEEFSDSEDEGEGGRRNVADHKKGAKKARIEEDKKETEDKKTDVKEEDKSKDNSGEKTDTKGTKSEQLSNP

For `Cc1[nH]c2ccccc2c1C1=CCC(NCc2ccc(OCC(=O)NO)cc2F)CC1` (centres undefined), the inhibition result in data set [1], in [7] and in data set [13] was “Dde” each time. The selectivity ratio in data set [2] was 20. Moreover, the Ratio IC50 in data set [3], in [6] and in data set [9] was 3 throughout. In addition, inhibition in [4] was half-maximal at 2300 nM (IC50 at 72 h). Further, the Activity in data set [5] is 81.8%; in [10] it was “Dde”; in [16], 91.5%; in [17], “Dde”; in data set [20], “Dde”; in [23], “Dde”. Further, the IC50 (commonly the concentration that gives 50% inhibition) came to 1.6 nM in data set [8]; 130 nM in data set [11]; 170 nM in data set [12]; 912 nM in [14]; 1.9 nM in data set [15]; 99 nM in [18]. Further, the figures for the IC50 in data set [19], in data set [21] and in data set [22] were 13 nM, 3.8 nM and 86 nM, respectively. Also, in data set [24], the outcome was Active.
